Here are results for one compound from patent US20230381205A1, “COMPOSITIONS AND METHODS FOR TREATING NEURONAL DISORDERS WITH CANNABINOIDS” (INMED PHARMACEUTICALS INC., priority 2020, published 2023).

In data set [1] the test system is differentiated SH-SY5Y human neuronal cells. Nature of the data set: MTT assay: neuroprotection from Aβ1-42 induced cytotoxicity. In kind it is cell-based. The conditions noted are these: FIG. 7. Here is the method: Cell Culture and Differentiation: The SH-SY5Y human neuronal cell line was derived from neuroblastoma established from a metastatic bone tumor (patient with neuroblastoma). The cells were maintained in DMEM:F12 culture medium supplemented with 10% FBS and 1% Antibiotic-Antimycotic penicillin/streptomycin (growth medium) at 37° C. in a humidified atmosphere of 5% CO2. To induce neuronal differentiation of SH-SY5Y cells, culture media was replaced by a growth medium containing Retinoic Acid (RA) for 4-5 days at 37° C. in a humidified atmosphere of 5% CO2.
Compounds and Dosing Formulations: Selected cannabinoids: CBD, CBDA, CBC, CBG, CBGA, CBN, CBND and Δ^9-THC were procured from Cayman Chemicals and TRC. Ethanol (100%) was used as the solvent to prepare 1 and 10 mM stock solutions. Treatment concentrations for CBGA were prepared at 0.5 μM, 1.5 μM, 5 μM, 10 μM, 15 μM, 20 μM. Treatment concentrations for CBD, CBDA, CBC, CBN, CBND and Δ^9-THC were prepared at 0.5, 1.5, 5 and for CBG at 0.5 μM, 1.5 μM, 5 μM, 10 μM, 15 μM. Treatments were prepared directly in the control medium (DMEM:F12+5% FBS+1% Antibiotic-Antimycotic) by using appropriate stock solutions.
Evaluation of Cytotoxicity and Neuroprotection: Evaluation of cannabinoids neuroprotection and cytotoxicity on differentiated SH-SY5Y human neuronal cells was carried out by MTT (3-(4,5-dimethylthiazol-2-yl)-2,5-diphenyltetrazolium bromide) assay. Initially, cannabinoid cytotoxicity and neuroprotection were evaluated in a primary screen assay without the presence of cytotoxicity inducing insult agents. […] The Retinoic Acid (RA) differentiated SH-SY5Y neuronal cells were seeded onto 96-well plates (10,000 cells/well) in DMEM:F12 complete medium. Cells were differentiated for 4-5 days in the presence of RA.
MTT Assay: For the MTT assay, differentiated SH-SY5Y neuronal cells were treated with cannabinoids at various concentrations for 72 hrs in the presence of STSR at 75 nM, 100 nM, 150 nM and 200 nM or for 24 hrs in the presence of […] at 5 μM, respectively and processed to determine cytotoxicity. Briefly, 5 mg/mL of methylthiazolyldiphenyl-tetrazolium bromide (Sigma-Aldrich) stock solution was prepared in PBS. Following treatment of SH-SY5Y neuronal cells with cannabinoids for 72 hrs, the cells were incubated with 20 μL of MTT stock solution in 200 μL DMEM for 2 hrs at 37° C. Following subsequent washes with PBS, 200 μL of isopropanol was added to each well. The resulting change in color from dissolving formazan salt was immediately quantified using a spectrophotometer (BMG Labtech) at a wavelength of 570 nm. […] The results are illustrated in FIGS. 1-7.
On the technique in general: Formazan colour is commonly taken as a measure of viable cells.

Data set [2] concerns Tuj1. Nature of the data set: Western blot of Tuj1 neuritogenesis marker. The settings on record: 5 μM and 10 μM, FIG. 13. The data set is classed as cell-based, human. Here is the method: FIG. 13 CBGA upregulates the expression of Tuj1 neuritogenesis marker. Developmental changes in prominent intracellular marker of neurite growth, neuron-specific III β-tubulin (Tuj1) was determined using Western blot analysis. CBGA increased the expression of Tuj1 in differentiated SH-SY5Y cells. FIG. 13 also provides a histogram showing densitometric analysis of relative expression of Tuj1. β-Actin was used as a loading control. P<0.05 for CBGA 10 μM vs Control by One-Way ANOVA.
For Western blot analysis, control and the treated cells were harvested and lysed in cold lysis buffer (150 mM NaCl, 50 mM Tris-HCl, 1% Triton X-100, 0.1% SDS, 0.5% Sodium deoxycholate, and 1% protease-phosphatase inhibitor mixture). The supernatants were collected and protein concentrations were determined using Bio-Rad protein assay (Bio-Rad Laboratories). Whole cell lysates (10 μg) were subjected to 10% SDS-polyacrylamide electrophoresis and transferred to nitrocellulose membrane. […]
A general note: In western blotting, separated proteins are transferred to a membrane and probed.

Data set [3] concerns MAP2. Description: Western blot of MAP2 neuritogenesis marker. The data set is classed as cell-based, human. The conditions noted are these: FIG. 15. As for the experimental part: FIG. 15 CBGA upregulates the expression of MAP2 neuritogenesis marker. […] Changes in prominent intracellular marker of neurite growth, microtubule-associated protein 2 (MAP2) was determined using western blot analysis. Histogram showing densitometric analysis of relative expression of MAP2. β-Actin was used as a loading control.
For Western blot analysis, control and the treated cells were harvested and lysed in cold lysis buffer (150 mM NaCl, 50 mM Tris-HCl, 1% Triton X-100, 0.1% SDS, 0.5% Sodium deoxycholate, and 1% protease-phosphatase inhibitor mixture). The supernatants were collected and protein concentrations were determined using Bio-Rad protein assay (Bio-Rad Laboratories). Whole cell lysates (10 μg) were subjected to 10% SDS-polyacrylamide electrophoresis and transferred to nitrocellulose membrane. The membranes were blocked with 5% skim milk in TBS-T (Tris-buffered saline with 0.05% Tween-20) for 1 h at RT and blotted overnight in the presence of monoclonal anti-mouse MAP2 (1:1000, Sigma, cat. no. M1406), Tau (1:1000, Invitrogen, cat. no. AHB0042), TUJI (1:5000, BioLegend, cat. no. MMS-435P), BAX (1:1000, Cell signaling, cat. no. 2772) and rabbit polyclonal total and phosphorylated BCL (1:1000, Cell signaling, antibodies #2827 and 2870). […]

As to `CCCCCc1cc(O)c(C/C=C(\C)CCC=C(C)C)c(O)c1C(=O)O` [CBGA, 3-[(2E)-3,7-dimethylocta-2,6-dienyl]-2,4-dihydroxy-6-pentylbenzoic acid], in data set [1] (0.15 μM, 0.5 μM, 1.5 μM, 5 μM, 10 μM and 15 μM with Aβ1-42 5 μM, dose-dependent), the “protection from Aβ1-42 induced insult” value is recorded as “protected cells”. The “effect with Aβ1-42 at the highest concentration” value in data set [1] (20 μM with Aβ1-42 5 μM) is “resulted in cell death”. For the same compound, the “TuJ1 expression, Western blot” value in data set [2] was “promotes upregulation of TuJ1 expression”. For the same compound, the figures for the “MAP2 expression, western blot” value in data set [3] (CBGA 10 μM alone) and in data set [3] (CBGA 10 μM with Aβ) were “increased the expression of MAP2” and “abrogates Aβ mediated downregulation of MAP2 expression”, respectively.
